Assay results from publication PMC9141242, “Enhanced Soluble Expression of Linoleic Acid Isomerase by Coordinated Regulation of Promoter and Fusion Tag in Escherichia coli” (Foods, 2022).

Target: T1, MBP-PAI (Cutibacterium acnes, UniProt Q6A8X5)
T1 construct: gene PPA1039; PAI (about 50 kDa); synthesized gene in pET-24a(+), E. coli BL21(DE3)
T1 sequence (Q6A8X5 1-424): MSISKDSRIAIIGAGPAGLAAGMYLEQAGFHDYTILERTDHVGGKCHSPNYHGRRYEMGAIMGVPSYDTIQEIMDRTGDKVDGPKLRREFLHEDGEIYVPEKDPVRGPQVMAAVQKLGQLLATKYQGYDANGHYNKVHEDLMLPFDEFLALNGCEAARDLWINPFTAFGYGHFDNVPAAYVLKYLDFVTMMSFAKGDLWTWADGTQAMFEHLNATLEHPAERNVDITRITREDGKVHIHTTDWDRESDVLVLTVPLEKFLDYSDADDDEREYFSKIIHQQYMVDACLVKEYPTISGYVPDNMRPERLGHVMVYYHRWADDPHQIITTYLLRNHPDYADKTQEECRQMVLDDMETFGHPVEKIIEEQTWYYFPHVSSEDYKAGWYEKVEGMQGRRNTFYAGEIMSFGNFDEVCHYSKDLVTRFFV
Assay: spectrophotometry at […] nm, CLA formation, Lineweaver-Burk
Type: biochemical
Conditions: optimal conditions (37 °C, pH 7.5, 1 mmol/L Tween-20); LA 71-1428 μM; MBP tag not cleaved; apparent

CCCCC/C=C\C/C=C\CCCCCCCC(=O)O [linoleic acid]
Km: 254 µM
